In the CheMixHub viscosity set:
Values joined by “and” are separate entries in the source; they are usually repeats but may differ in a detail not shown here. Identical values can stand only once.

Assay: xn = mol fraction of the nth substance listed

CCCCCCCCCCCCCCCCCC(=O)OC + ClC=C(Cl)Cl
viscosity [mPa·s], 101 kPa
Details | x1 = 0.05 | x1 = 0.1 | x1 = 0.15 | x1 = 0.2 | x1 = 0.25 | x1 = 0.3
298 K | 0.77 | 1.04 | 1.37 | 1.73 | 2.09 | 2.61
303 K | 0.74 | 0.98 | 1.3 | 1.6 | 1.9 | 2.39
308 K | 0.71 | 0.93 | 1.21 | 1.5 | 1.77 | 2.2
313 K | 0.68 | 0.89 | 1.14 | 1.4 | 1.66 | 2.01

CC(F)F + FCC(F)(F)F
viscosity [mPa·s], 101 kPa
Details | x1 = 0.259 | x1 = 0.5 | x1 = 0.75
298.15 K | 0.1801 | 0.1772 | 0.1647
313.15 K | 0.1504 | 0.1444 | 0.1397

Cc1ccc(C)cc1 + CCCCCCO
viscosity, 101 kPa
Details | x2 = 0.0999 | x2 = 0.1999 | x2 = 0.2999 | x2 = 0.4001 | x2 = 0.4997 | x2 = 0.6 | x2 = 0.7 | x2 = 0.8 | x2 = 0.8999
303.15 K | 0.616 mPa·s and 0.616 mPa·s | 0.693 mPa·s and 0.693 mPa·s | 0.799 mPa·s and 0.799 mPa·s | 0.946 mPa·s and 0.946 mPa·s | 1.148 mPa·s and 1.148 mPa·s | 1.42 mPa·s and 1.42 mPa·s | 1.801 mPa·s and 1.801 mPa·s | 2.323 mPa·s and 2.323 mPa·s | 3.004 mPa·s and 3.004 mPa·s
313.15 K | 0.544 mPa·s and 0.544 mPa·s | 0.605 mPa·s and 0.605 mPa·s | 0.689 mPa·s and 0.689 mPa·s | 0.802 mPa·s and 0.802 mPa·s | 0.956 mPa·s and 0.956 mPa·s | 1.156 mPa·s and 1.156 mPa·s | 1.433 mPa·s and 1.433 mPa·s | 1.806 mPa·s and 1.806 mPa·s | 2.295 mPa·s and 2.295 mPa·s
323.15 K | 0.485 mPa·s and 0.485 mPa·s | 0.533 mPa·s and 0.533 mPa·s | 0.6 mPa·s and 0.6 mPa·s | 0.689 mPa·s and 0.689 mPa·s | 0.807 mPa·s and 0.807 mPa·s | 0.958 mPa·s and 0.958 mPa·s | 1.161 mPa·s and 1.161 mPa·s | 1.433 mPa·s and 1.433 mPa·s | 1.788 mPa·s and 1.788 mPa·s

CCCCCCCCCCCCCCCCCC(=O)OC + CCCCCC
viscosity [mPa·s], 101 kPa
Details | x1 = 0.05 | x1 = 0.1 | x1 = 0.15 | x1 = 0.2 | x1 = 0.25 | x1 = 0.3
298 K | 0.48 | 0.67 | 0.85 | 1.08 | 1.22 | 1.41
303 K | 0.46 | 0.63 | 0.79 | 0.99 | 1.13 | 1.3
308 K | 0.44 | 0.59 | 0.74 | 0.92 | 1.05 | 1.21
313 K | 0.42 | 0.55 | 0.69 | 0.85 | 0.98 | 1.12

Cc1ccc(C)cc1 + CC(C)=O
307.35 K, 101.33 kPa
Details | viscosity [mPa·s]
x2 = 0.1403 | 0.5
x2 = 0.4308 | 0.429
x2 = 0.5768 | 0.4
x2 = 0.6298 | 0.385
x2 = 0.7285 | 0.353
x2 = 0.9118 | 0.311

C=C(C)C(=O)OCCCCCCC + CCCCCC
viscosity [mPa·s], 101 kPa
Details | x1 = 0.002 | x1 = 0.005 | x1 = 0.01 | x1 = 0.02
303 K | 0.2814 | 0.2918 | 0.2946 | 0.3052
313 K | 0.2567 | 0.2692 | 0.2692 | 0.2801
323 K | 0.2346 | 0.2442 | 0.247 | 0.2568

C=C(C)C(=O)OCCCCCCC + C1CCCCC1
viscosity [mPa·s], 101 kPa
Details | x1 = 0.002 | x1 = 0.005 | x1 = 0.01 | x1 = 0.02
303 K | 0.8392 | 0.8401 | 0.8252 | 0.8456
313 K | 0.6991 | 0.7083 | 0.7012 | 0.7219
323 K | 0.6114 | 0.6127 | 0.6159 | 0.6244

O=Cc1ccccc1 + CCCCO
viscosity [mPa·s], 101.33 kPa
Details | x1 = 0.1021 | x1 = 0.2004 | x1 = 0.3089 | x1 = 0.4057 | x1 = 0.4992 | x1 = 0.6014 | x1 = 0.6982 | x1 = 0.8044 | x1 = 0.9027
293.15 K | 2.662 | 2.48 | 2.294 | 2.14 | 2.001 | 1.86 | 1.735 | 1.608 | 1.498
303.15 K | 2.143 | 2.025 | 1.903 | 1.799 | 1.705 | 1.608 | 1.521 | 1.43 | 1.352
313.15 K | 1.62 | 1.563 | 1.503 | 1.451 | 1.403 | 1.352 | 1.305 | 1.256 | 1.212
323.15 K | 1.088 | 1.086 | 1.084 | 1.082 | 1.081 | 1.079 | 1.077 | 1.075 | 1.074

CCCC[N+](CCCC)(CCCC)CCCC.[Cl-] + CSCC[C@H](N)C(=O)O
Details | viscosity [mPa·s]
323.15 K, 101 kPa, x1 = 0.9 | 529
